Reference: US9545386B2, “Methods of treating infectious diseases” (SLIPPERY ROCK UNIVERSITY FOUNDATION, INC., priority 2007, dated 2017)
In brackets after ≈: the same amount, converted by molar mass.

Key:
Assay type in all cases: cell-based
[1] = tested on: Parastrongyloides trichosuri infective larvae; assay: In vitro bioassay of infective larvae, immobilization and lethal doses (eosin, Probit); conditions: for 24 hr ID50 ± 95% confidence intervals / 24 hr ID90 ± 95% confidence intervals / 24 hr LD50 ± 95% confidence intervals / 24 hr LD90 ± 95% confidence intervals: P. trichosuri infective larvae, 24 hr in vitro; for 24 hr ID50 ± 95% confidence intervals: immobilize 50%; for 24 hr ID90 ± 95% confidence intervals: immobilize 90%; for 24 hr LD50 ± 95% confidence intervals: kill 50%; for 24 hr LD90 ± 95% confidence intervals: kill 90%
Experimental: (§1) Strongyloides stercoralis infective larvae were harvested from charcoal coprocultures in nematode saline solution. The larvae were supplied by the Parasitology Laboratory, Department of Pathobiology, University of Pennsylvania. The strain of larvae was a human strain of the parasitic nematode that had been maintained for over ten years in canines by daily prednisolone treatment (2 mg/kg per os, once daily. Parastrongyloides trichosuri and Ancylostoma caninum infective larvae were also supplied by the same source as for S. stercoralis. Haemonchus contortus infective larvae were harvested from charcoal coprocultures in nematode saline solution prepared from infected sheep feces obtained from Merck Parasites Laboratory.
(§2) The 24 hr 50% and 90% immobilization doses (ID50 and ID90), and 50% and 90% lethal doses (LD50 and LD90) of eryngial (mg/ml) were investigated in vitro using infective larvae of all four parasitic nematodes. Each species was exposed to a range of eryngial dilutions by adding known volumes of a homogeneous ‘wormy’ solution (infective larvae in nematode saline solution) to known volumes of an eryngial stock suspension (10 mg/ml of nematode saline solution). Each dilution, including the control (0 mg/ml eryngial), was prepared in triplicate and also contained eosin (0.01%, w/v), which was used as an indicator of mortality, and Triton X-100 (1.0%, v/v).
(§3) Using S. stercoralis, P. trichosuri, H. contortus and A. caninum infective larvae, eryngial dilutions, excluding the controls, ranged from 0.05 to 1.15 mg/ml; 0.01 to 1.0 mg/ml; 0.5 to 2.0 mg/ml; and 0.8 to 3.0 mg/ml, respectively. Sub-sample (10 μl) counts of larvae that were mobile, immobile but not stained and stained, were done at the start of each bioassay and at 24 hr intervals for two days. Each sub-sample contained approximately 50 infective larvae.
(§4) Probit analysis was used to determine 24 hr and 48 hr immobilization and lethal doses for eryngial and ivermectin, respectively.

[2] = tested on: Ancylostoma caninum infective larvae; assay: as above; conditions: for 24 hr ID50 ± 95% confidence intervals: immobilize 50%; for 24 hr ID90 ± 95% confidence intervals: immobilize 90%
Experimental: as §1, §2, §3, §4

Streptococcus pyogenes = assay: Antibacterial MIC/MBC, 96 well broth dilution; conditions: S. pyogenes, 24 hr in vitro, DMSO as solvent
Experimental: (§5) Bacterial cultures were obtained from the American Type Culture Collection (ATCC), except for Streptococcus pyogenes, which was started from a Difco Bactrol disc. The other organisms were Enterococcus faecalis, Staphylococcus aureus, Escherichia coli, Salmonella typhimurium and Pseudomonas aeruginosa. Cultures were grown in Luria-Bertani (LB) broth. Fungi were obtained from Carolina Biological Supply Company (Aspergillus niger, Candida albicans and Cryptococcus neoformans); Presque Isle Cultures, Erie Pa. (Microsporum gypseum); or from ATCC (Penicillium marneffei). Fungal cultures were maintained in Sabouraud dextrose broth (SDB) or agar (SDA). All media components came from Difco.
(§6) Tests were done in flat-bottomed 96 well cell culture plates (Costar). All samples were done in duplicate. Eryngial was suspended in culture medium plus 0.04% Triton-X to make a 2% (20 mg/ml) suspension, which was passed through a 0.22 μm filter to make a uniform emulsion. Serial doubling dilutions of eryngial in culture medium plus 0.04% Triton-X were prepared, and 75 μl was added to each well. 75 μl of cell or spore suspensions in culture medium also were added to each well. The final concentration of Triton-X was 0.02%, and the final concentration of eryngial was 1% (10 mg/ml) at the highest concentration tested.
(§7) Dimethyl sulfoxide (DMSO) also was used as a solvent for eryngial. A solution of 12.5% eryngial in DMSO was the initial solution. Doubling dilutions were carried out in DMSO. The DMSO-eryngial solutions were diluted 100-fold into growth medium, resulting in a final concentration of 1% DMSO, and 0.125% (1,250 μg/ml) eryngial as the highest concentration tested.
(§8) Overnight bacterial cultures in LB medium were diluted into fresh LB to an OD600 of 0.02 to 0.03, and then diluted 1000-fold again in LB. […] Blank wells for each concentration of eryngial were prepared with plain culture medium added.
(§9) The 96 well plates were incubated at 37° for 24 hr (in a candle jar for S. pyogenes), and the OD630 was read on an EL800 universal microplate reader (Bio-Tek Instruments). Readings from duplicate wells were averaged, and readings from duplicate blank wells for each concentration of eryngial were subtracted to generate the final values. The minimum inhibitory concentration (MIC, μg/ml) was defined as the well with the highest dilution of eryngial in which no growth was observed.
(§10) To determine whether eryngial was merely inhibiting growth of the bacteria and fungi, or whether it also was having a killing effect, the minimum bactericidal concentrations (MBC, μg/ml) or minimum fungicidal concentrations (MFC, μg/ml) were determined. This was done by removing a 50 μl sample from a well after 24 hr (bacteria) or 96 hr (fungi) and diluting the samples in 5 ml of fresh culture medium. These tubes then were incubated at the appropriate temperature for 24-96 hr and observed for any signs of growth.

Staphylococcus aureus = assay: Antibacterial MIC/MBC, 96 well broth dilution; conditions: S. aureus, 24 hr in vitro, 0.02% Triton X-100
Experimental: as §5, §6, §7, §8, §9, §10

Enterococcus faecalis = assay: Antibacterial MIC/MBC, 96 well broth dilution; conditions: E. faecalis, 24 hr in vitro, 0.02% Triton X-100
Experimental: as §5, §6, §7, §8, §9, §10

[3] = A. caninum infective larvae, 24 hr in vitro
[4] = A. caninum infective larvae, 24 hr in vitro, listed as eryngial

SMILES: CCCCCCCCC/C=C/C=O [Eryngial, trans-2-dodecenal]
- increased sensitivity to eryngial (90% immobilization) ([1]; 24 hr ID90, P. trichosuri compared to A. caninum): 9.4 fold
- increased sensitivity to eryngial (90% immobilization) ([1]; 24 hr ID90, P. trichosuri over H. contortus): 8.5 fold
- increase in sensitivity to eryngial (50% mortality doses) ([1]; 24 hr LD50, P. trichosuri over A. caninum): 5.8 fold
- increase in sensitivity to eryngial (50% mortality doses) ([1]; 24 hr LD50, P. trichosuri over H. contortus): 17.1 fold
- increased sensitivity to eryngial (90% mortality doses) ([1]; 24 hr LD90, P. trichosuri over A. caninum): 4 fold
- increased sensitivity to eryngial (90% mortality doses) ([1]; 24 hr LD90, P. trichosuri over H. contortus): 9.3 fold
- 24 hr ID50 ± 95% confidence intervals [1]: 0.013 (0.007-0.030) mg/ml
- 24 hr ID50 ± 95% confidence intervals ([1]; listed as eryngial): 0.013 mg/mL
- 24 hr ID90 ± 95% confidence intervals [1]: 0.092 (0.051-0.201) mg/ml
- 24 hr ID90 ± 95% confidence intervals ([1]; listed as eryngial): 0.092 mg/mL
- 24 hr LD50 ± 95% confidence intervals [1]: 0.105 (0.084-0.133) mg/ml
- 24 hr LD50 ± 95% confidence intervals ([1]; listed as eryngial): 0.105 mg/mL
- 24 hr LD90 ± 95% confidence intervals [1]: 0.297 (0.214-0.515) mg/ml
- 24 hr LD90 ± 95% confidence intervals ([1]; listed as eryngial): 0.297 mg/mL
- increase in the dose required to immobilize 50% ([2]; 24 hr ID50, A. caninum relative to P. trichosuri): 41.9 fold
- 24 hr ID50 ± 95% confidence intervals [2, 3]: 0.545 (0.440-0.641) mg/ml
- 24 hr ID50 ± 95% confidence intervals [2, 4]: 0.545 mg/mL
- 24 hr ID90 ± 95% confidence intervals [2, 3]: 0.867 (0.717-1.445) mg/ml
- 24 hr ID90 ± 95% confidence intervals [2, 4]: 0.867 mg/mL
- 24 hr LD50 ± 95% confidence intervals ([2]; A. caninum infective larvae, kill 50%, 24 hr in vitro): 0.608 (0.429-0.765) mg/ml
- 24 hr LD90 ± 95% confidence intervals ([2]; A. caninum infective larvae, kill 90%, 24 hr in vitro): 1.178 (0.913-2.100) mg/ml
- MBC (Streptococcus pyogenes): 156 µg/mL (≈ 856 µM)
- MIC (Streptococcus pyogenes): 156 µg/mL (≈ 856 µM)
- MBC (Staphylococcus aureus): 78 µg/mL (≈ 428 µM)
- MIC (Staphylococcus aureus): 78 µg/mL (≈ 428 µM)
- MBC (Enterococcus faecalis): 313 µg/mL (≈ 1720 µM)
- MIC (Enterococcus faecalis): 313 µg/mL (≈ 1720 µM)
